{"source": "patent US20230053540A1", "about": "“TREATMENT OF LIVER INJURY” (Massachusetts Institute of Technology, priority 2019, published 2023)", "tested_on": "hepatocytes", "test": "Seq-Well scRNA-Seq of hepatocytes after APAP overdose (signature scores, DEG vs untreated)", "type": "in vivo, mouse"}
{"smiles": "CC(=O)Nc1ccc(O)cc1", "note": "[APAP, acetaminophen]", "values": [{"measurement": "Slc25a10 avg_logFC", "setting": "A96 vs untreated (UT)", "value": 0.2508}, {"measurement": "Slc25a10 pct.1", "setting": "A96 vs untreated (UT)", "value": 0.701}, {"measurement": "Slc25a13 avg_logFC", "setting": "A96 vs untreated (UT)", "value": 0.2573}, {"measurement": "Slc25a13 pct.1", "setting": "A96 vs untreated (UT)", "value": 0.786}, {"measurement": "Slc25a20 avg_logFC", "setting": "A96 vs untreated (UT)", "value": 0.3215}, {"measurement": "Slc25a20 pct.1", "setting": "A96 vs untreated (UT)", "value": 0.671}, {"measurement": "Slc25a47 avg_logFC", "setting": "A96 vs untreated (UT)", "value": 0.2777}, {"measurement": "Slc25a47 pct.1", "setting": "A96 vs untreated (UT)", "value": 0.96}, {"measurement": "Slc27a2 avg_logFC", "setting": "A96 vs untreated (UT)", "value": 0.3931}, {"measurement": "Slc27a2 pct.1", "setting": "A96 vs untreated (UT)", "value": 0.988}, {"measurement": "Slc27a5 avg_logFC", "setting": "A96 vs untreated (UT)", "value": 0.2567}, {"measurement": "Slc27a5 pct.1", "setting": "A96 vs untreated (UT)", "value": 0.958}, {"measurement": "Slc40a1 avg_logFC", "setting": "A96 vs untreated (UT)", "value": 0.336}, {"measurement": "Slc40a1 pct.1", "setting": "A96 vs untreated (UT)", "value": 0.551}, {"measurement": "Slco1a4 avg_logFC", "setting": "A96 vs untreated (UT)", "value": 0.4652}, {"measurement": "Slco1a4 pct.1", "setting": "A96 vs untreated (UT)", "value": 0.507}, {"measurement": "Snord13 avg_logFC", "setting": "A96 vs untreated (UT)", "value": 0.2659}, {"measurement": "Snord13 pct.1", "setting": "A96 vs untreated (UT)", "value": 0.386}, {"measurement": "Snord118 avg_logFC", "setting": "A96 vs untreated (UT)", "value": 0.5783}, {"measurement": "Snord118 pct.1", "setting": "A96 vs untreated (UT)", "value": 0.564}, {"measurement": "St3gal5 avg_logFC", "setting": "A96 vs untreated (UT)", "value": 0.3862}, {"measurement": "St3gal5 pct.1", "setting": "A96 vs untreated (UT)", "value": 0.71}, {"measurement": "Sult1a1 avg_logFC", "setting": "A96 vs untreated (UT)", "value": 0.522}, {"measurement": "Sult1a1 pct.1", "setting": "A96 vs untreated (UT)", "value": 0.881}, {"measurement": "Sult1d1 avg_logFC", "setting": "A96 vs untreated (UT)", "value": 0.4421}, {"measurement": "Sult1d1 pct.1", "setting": "A96 vs untreated (UT)", "value": 0.855}, {"measurement": "Tat avg_logFC", "setting": "A96 vs untreated (UT)", "value": 0.2529}, {"measurement": "Tat pct.1", "setting": "A96 vs untreated (UT)", "value": 0.981}, {"measurement": "Tgoln1 avg_logFC", "setting": "A96 vs untreated (UT)", "value": 0.3801}, {"measurement": "Tgoln1 pct.1", "setting": "A96 vs untreated (UT)", "value": 0.756}, {"measurement": "Tmbim6 avg_logFC", "setting": "A96 vs untreated (UT)", "value": 0.2624}, {"measurement": "Tmbim6 pct.1", "setting": "A96 vs untreated (UT)", "value": 0.988}, {"measurement": "Tmed5 avg_logFC", "setting": "A96 vs untreated (UT)", "value": 0.3754}, {"measurement": "Tmed5 pct.1", "setting": "A96 vs untreated (UT)", "value": 0.714}, {"measurement": "Tmem106b avg_logFC", "setting": "A96 vs untreated (UT)", "value": 0.3285}, {"measurement": "Tmem106b pct.1", "setting": "A96 vs untreated (UT)", "value": 0.727}, {"measurement": "Tob1 avg_logFC", "setting": "A96 vs untreated (UT)", "value": 0.3731}, {"measurement": "Tob1 pct.1", "setting": "A96 vs untreated (UT)", "value": 0.649}, {"measurement": "Trp53inp1 avg_logFC", "setting": "A96 vs untreated (UT)", "value": 0.3647}, {"measurement": "Trp53inp1 pct.1", "setting": "A96 vs untreated (UT)", "value": 0.551}, {"measurement": "Tsc22d3 avg_logFC", "setting": "A96 vs untreated (UT)", "value": 0.3425}, {"measurement": "Tsc22d3 pct.1", "setting": "A96 vs untreated (UT)", "value": 0.534}, {"measurement": "Ttpa avg_logFC", "setting": "A96 vs untreated (UT)", "value": 0.6266}, {"measurement": "Ttpa pct.1", "setting": "A96 vs untreated (UT)", "value": 0.98}, {"measurement": "Ttr avg_logFC", "setting": "A96 vs untreated (UT)", "value": 0.3459}, {"measurement": "Ttr pct.1", "setting": "A96 vs untreated (UT)", "value": 1}, {"measurement": "Ubc avg_logFC", "setting": "A96 vs untreated (UT)", "value": 0.3578}, {"measurement": "Ubc pct.1", "setting": "A96 vs untreated (UT)", "value": 0.968}, {"measurement": "Ubr3 avg_logFC", "setting": "A96 vs untreated (UT)", "value": 0.2529}, {"measurement": "Ubr3 pct.1", "setting": "A96 vs untreated (UT)", "value": 0.585}, {"measurement": "Uhrf1bp1l avg_logFC", "setting": "A96 vs untreated (UT)", "value": 0.2559}, {"measurement": "Uhrf1bp1l pct.1", "setting": "A96 vs untreated (UT)", "value": 0.415}, {"measurement": "Upp2 avg_logFC", "setting": "A96 vs untreated (UT)", "value": "−0.2859"}, {"measurement": "Upp2 pct.1", "setting": "A96 vs untreated (UT)", "value": 0.545}, {"measurement": "Uroc1 avg_logFC", "setting": "A96 vs untreated (UT)", "value": 0.3074}, {"measurement": "Uroc1 pct.1", "setting": "A96 vs untreated (UT)", "value": 0.726}, {"measurement": "Wbp1l avg_logFC", "setting": "A96 vs untreated (UT)", "value": 0.3456}, {"measurement": "Wbp1l pct.1", "setting": "A96 vs untreated (UT)", "value": 0.789}, {"measurement": "Zfp36l1 avg_logFC", "setting": "A96 vs untreated (UT)", "value": 0.3298}, {"measurement": "Zfp36l1 pct.1", "setting": "A96 vs untreated (UT)", "value": 0.601}, {"measurement": "Zfp91 avg_logFC", "setting": "A96 vs untreated (UT)", "value": 0.3741}, {"measurement": "Zfp91 pct.1", "setting": "A96 vs untreated (UT)", "value": 0.693}, {"measurement": "Zfp683 avg_logFC", "setting": "A96 vs untreated (UT)", "value": 0.3027}, {"measurement": "Zfp683 pct.1", "setting": "A96 vs untreated (UT)", "value": 0.476}, {"measurement": "mt-Co1 avg_logFC", "setting": "A96 vs untreated (UT)", "value": "−0.8459"}, {"measurement": "mt-Co1 pct.1", "setting": "A96 vs untreated (UT)", "value": 0.983}, {"measurement": "mt-Co2 avg_logFC", "setting": "A96 vs untreated (UT)", "value": "−1.033"}, {"measurement": "mt-Co2 pct.1", "setting": "A96 vs untreated (UT)", "value": 0.313}, {"measurement": "mt-Co3 avg_logFC", "setting": "A96 vs untreated (UT)", "value": "−1.046"}, {"measurement": "mt-Co3 pct.1", "setting": "A96 vs untreated (UT)", "value": 0.213}, {"measurement": "mt-Cytb avg_logFC", "setting": "A96 vs untreated (UT)", "value": "−0.7105"}, {"measurement": "mt-Cytb pct.1", "setting": "A96 vs untreated (UT)", "value": 0.99}, {"measurement": "mt-Nd1 avg_logFC", "setting": "A96 vs untreated (UT)", "value": "−0.5843"}, {"measurement": "mt-Nd1 pct.1", "setting": "A96 vs untreated (UT)", "value": 0.996}, {"measurement": "mt-Nd2 avg_logFC", "setting": "A96 vs untreated (UT)", "value": "−0.7197"}, {"measurement": "mt-Nd2 pct.1", "setting": "A96 vs untreated (UT)", "value": 0.994}, {"measurement": "mt-Nd4 avg_logFC", "setting": "A96 vs untreated (UT)", "value": "−0.8488"}, {"measurement": "mt-Nd4 pct.1", "setting": "A96 vs untreated (UT)", "value": 0.986}, {"measurement": "mt-Nd5 avg_logFC", "setting": "A96 vs untreated (UT)", "value": "−0.573"}, {"measurement": "mt-Nd5 pct.1", "setting": "A96 vs untreated (UT)", "value": 0.964}, {"measurement": "mt-Rnr1 avg_logFC", "setting": "A96 vs untreated (UT)", "value": "−0.3398"}, {"measurement": "mt-Rnr1 pct.1", "setting": "A96 vs untreated (UT)", "value": 1}, {"measurement": "mt-Rnr2 avg_logFC", "setting": "A96 vs untreated (UT)", "value": "−0.3332"}, {"measurement": "mt-Rnr2 pct.1", "setting": "A96 vs untreated (UT)", "value": 1}, {"measurement": "mt-Tp avg_logFC", "setting": "A96 vs untreated (UT)", "value": 0.3085}, {"measurement": "mt-Tp pct.1", "setting": "A96 vs untreated (UT)", "value": 0.329}, {"measurement": "Acaa1b avg_logFC", "setting": "APAP composite vs UT", "value": "−0.8508"}, {"measurement": "Agt avg_logFC", "setting": "APAP composite vs UT", "value": 0.5205}, {"measurement": "Ahsg avg_logFC", "setting": "APAP composite vs UT", "value": 0.2925}, {"measurement": "Akr1c6 avg_logFC", "setting": "APAP composite vs UT", "value": "−1.586"}, {"measurement": "Ang avg_logFC", "setting": "APAP composite vs UT", "value": 0.7089}, {"measurement": "Angptl3 avg_logFC", "setting": "APAP composite vs UT", "value": 0.7089}, {"measurement": "Apoa2 avg_logFC", "setting": "APAP composite vs UT", "value": "−0.5455"}, {"measurement": "Apoc1 avg_logFC", "setting": "APAP composite vs UT", "value": "−0.8713"}, {"measurement": "Apoc2 avg_logFC", "setting": "APAP composite vs UT", "value": 0.7821}, {"measurement": "Apoe avg_logFC", "setting": "APAP composite vs UT", "value": "−0.4213"}, {"measurement": "Apoh avg_logFC", "setting": "APAP composite vs UT", "value": 0.4118}, {"measurement": "Cdo1 avg_logFC", "setting": "APAP composite vs UT", "value": 0.517}, {"measurement": "Ces1c avg_logFC", "setting": "APAP composite vs UT", "value": 0.4668}, {"measurement": "Chchd1 avg_logFC", "setting": "APAP composite vs UT", "value": 0.7207}, {"measurement": "Chchd10 avg_logFC", "setting": "APAP composite vs UT", "value": 0.7207}]}
